ChEMBL document CHEMBL2073818, “St John's Wort induces intestinal P-glycoprotein/MDR1 and intestinal and hepatic CYP3A4” (Clin Pharmacol Ther, 2000)

Biological target: ATP-dependent translocase ABCB1 (Homo sapiens, UniProt P08183)
Assay: TP_TRANSPORTER: Western in vivo human
Assay type: functional, organism-based

Sequence of ATP-dependent translocase ABCB1 (P08183 whole entry): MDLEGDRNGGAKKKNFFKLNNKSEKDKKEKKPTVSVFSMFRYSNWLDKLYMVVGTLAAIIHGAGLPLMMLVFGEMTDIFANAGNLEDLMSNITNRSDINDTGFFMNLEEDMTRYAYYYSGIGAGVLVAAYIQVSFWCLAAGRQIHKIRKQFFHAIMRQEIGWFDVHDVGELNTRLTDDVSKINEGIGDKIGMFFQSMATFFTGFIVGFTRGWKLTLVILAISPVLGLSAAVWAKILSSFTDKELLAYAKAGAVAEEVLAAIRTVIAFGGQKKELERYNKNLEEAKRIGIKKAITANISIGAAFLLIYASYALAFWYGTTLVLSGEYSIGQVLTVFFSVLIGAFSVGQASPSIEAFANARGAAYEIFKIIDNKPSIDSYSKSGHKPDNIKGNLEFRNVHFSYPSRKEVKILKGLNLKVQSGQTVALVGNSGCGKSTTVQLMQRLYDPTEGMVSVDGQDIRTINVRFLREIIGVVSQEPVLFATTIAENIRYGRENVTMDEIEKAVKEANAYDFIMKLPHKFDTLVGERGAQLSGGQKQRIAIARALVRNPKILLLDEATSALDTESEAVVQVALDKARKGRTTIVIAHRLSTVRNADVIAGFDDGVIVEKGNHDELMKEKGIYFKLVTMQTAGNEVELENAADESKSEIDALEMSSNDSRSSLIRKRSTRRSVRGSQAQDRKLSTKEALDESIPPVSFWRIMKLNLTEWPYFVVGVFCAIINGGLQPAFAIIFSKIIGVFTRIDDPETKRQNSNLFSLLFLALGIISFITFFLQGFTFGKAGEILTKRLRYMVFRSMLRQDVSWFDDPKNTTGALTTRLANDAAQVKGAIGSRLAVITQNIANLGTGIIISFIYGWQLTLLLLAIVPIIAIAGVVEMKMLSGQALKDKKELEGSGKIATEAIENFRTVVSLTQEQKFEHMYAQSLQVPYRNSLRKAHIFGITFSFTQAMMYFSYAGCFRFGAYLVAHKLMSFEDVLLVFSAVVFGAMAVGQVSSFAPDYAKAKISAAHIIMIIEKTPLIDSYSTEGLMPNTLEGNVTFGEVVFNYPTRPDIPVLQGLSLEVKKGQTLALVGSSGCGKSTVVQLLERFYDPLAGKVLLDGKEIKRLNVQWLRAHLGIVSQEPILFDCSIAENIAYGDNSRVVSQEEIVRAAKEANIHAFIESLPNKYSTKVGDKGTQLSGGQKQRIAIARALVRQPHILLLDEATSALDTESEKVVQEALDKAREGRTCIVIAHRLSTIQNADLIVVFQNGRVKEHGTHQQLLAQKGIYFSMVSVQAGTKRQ

Activity: inducer [+]
Substance: ST. JOHN'S WORT
